The record followed here is US8198099B2, “Mechanism to signal receptor-ligand interactions with luminescent quantum dots” (The University of Miami, priority 2006, dated 2012).

Experiment [1] can be described thus: Luminescence restoration on adding excess macrocyclic receptor 3 to quantum dots and quencher 1. The format is binding. The conditions noted are these: quantum dots 1.5 μM, 1 4.1 μM, 3 21 μM, pH=7.8, 20° C. The protocol:
(§1) The emission spectra (λEx=350 nm) of the same solution were recorded before (b) and after the consecutive addition of 1 (c, 4.1 μM) and 3 (d, 21 μM). Also shown is a Stern-Volmer plot (e) of hydrophilic CdSe—ZnS core-shell quantum dots (1.5 μM, sodium phosphate buffer, pH=7.8, 20° C., λEx=350 nm) upon addition of increasing amounts of 1.
The change imposed on the luminescence of the hydrophilic quantum dots by the quencher 1 can be reversed with the addition of an excess of cucurbituril (3 in FIG. 3). Indeed, this particular macrocyclic receptor is known to bind bipyridinium dications with high association constants in aqueous solutions.^36-39 Consistently, the emission spectrum (d in FIG. 2) recorded in the presence of an excess of 3 relative to 1 closely resembles the one recorded before the addition of 1 (b). The infrared spectra recorded before (b in FIG. 4) and after (c in FIG. 4) treatment of the CdSe—ZnS core-shell quantum dots with mercaptoacetic acid and potassium hydroxide show the disappearance of the [C—H] stretching vibrations at 2800 cm^−1 to […] (a) for hydrophobic ligands and the appearance of the [C═O] stretching vibrations at 1300 cm^−1 to 1700 cm^−1 (d) for the hydrophilic ones. […] In principle, the very same mechanism can be adapted to signal receptor-ligand interactions with changes in luminescence. […]

A short description of experiment [2]: Stern-Volmer quenching of quantum dot luminescence by bipyridinium quenchers. The format is binding. The conditions noted are these: for Stern-Volmer constant: linear (static) region of plot, quantum dots 1.5 μM, sodium phosphate buffer, pH=7.8, 20° C., λEx=350 nm. As for the experimental part:
as §1
(§2) Also shown is a Stern-Volmer plot (d) of hydrophilic CdSe—ZnS core-shell quantum dots (1.5 μM, sodium phosphate buffer, pH=7.8, 20° C., λEx=350 nm) after addition of increasing amounts of 2.
Indeed, bipyridinium dications are known to accept electrons from excited CdSe and CdSe—ZnS core-shell quantum dots, quenching their luminescence.36-37 The corresponding Stern-Volmer plot (e in FIG. 2) deviated from linearity at quencher concentrations greater than about 2.5 μM. […] These observations are consistent with the adsorbance of the dicationic quencher on the surface of the hydrophilic quantum dots as a result of electrostatic interactions with their anionic carboxylate groups.
In order to test the potential of our operating principles to signal receptor-ligand interactions, we designed a compound (2 in FIG. 3) integrating a bipyridinium quencher and a biotin ligand within the same molecular skeleton and prepared this molecule in two synthetic steps (see FIG. 6). Once again, the luminescence of the hydrophilic quantum dots decreases upon exposure to 2 (a and b in FIG. 7) (the addition of either 1 or 2 to a solution of the quantum dots has no influence on the visible region of the absorption spectrum). […]
Methods. […] Infrared absorption spectra were recorded with a Perkin-Elmer Spectrum One Fourier transform spectrometer. Visible absorption spectra were recorded with a Varian Cary 100 Bio spectrometer, using quartz cells with a path length of 0.5 cm. Emission spectra were recorded with a Varian Cary Eclipse spectrometer in aerated solutions. Fast atom bombardment mass spectra (FABMS) were recorded with a VG Mass Lab Trio-2 in a 3-nitrobenzyl alcohol matrix. […]

Experiment [3] is described as follows: Control: receptor added to quantum dots without bipyridinium quenchers. The conditions noted are these: in the absence of bipyridinium quenchers.
The next experiment deals with T1, streptavidin (Streptomyces avidinii, UniProt P22629).
T1 construct: purchased
T1 sequence (P22629 25-183, species assumed): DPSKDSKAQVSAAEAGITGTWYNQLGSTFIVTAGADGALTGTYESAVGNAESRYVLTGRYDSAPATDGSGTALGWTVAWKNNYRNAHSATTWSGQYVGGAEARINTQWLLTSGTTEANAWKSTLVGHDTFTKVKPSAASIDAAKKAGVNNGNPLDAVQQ
Description: Luminescence enhancement on adding streptavidin to quantum dots and quencher-biotin 2. In kind it is binding. The conditions noted are these: quantum dots 1.5 μM, 2 4.1 μM, streptavidin 21 μM (large excess), pH=7.8, 20° C. As for the experimental part: as §2
(§3) The addition of increasing amounts of streptavidin to a mixture of the hydrophilic quantum dots and 2 leads to a luminescence enhancement (c in FIG. 7). The addition of 3, streptavidin or bovine serum albumin to a solution of the hydrophilic quantum dots has no influence on the emission spectrum in the absence of bipyridinium quenchers. Instead, the addition of bovine serum albumin has no influence of the emission spectrum under otherwise identical conditions (FIG. 8). […] The luminescence increases only by 30% after the association of 2 and streptavidin, while it grows by 80% after the interaction of 1 and 3. […] Presumably, an adjustment in the length of the aliphatic spacer connecting the quencher to the ligand in 2 can be invoked to improve the luminescence enhancement upon streptavidin binding.
Methods. […] Infrared absorption spectra were recorded with a Perkin-Elmer Spectrum One Fourier transform spectrometer. Visible absorption spectra were recorded with a Varian Cary 100 Bio spectrometer, using quartz cells with a path length of 0.5 cm. Emission spectra were recorded with a Varian Cary Eclipse spectrometer in aerated solutions. […]

Another experiment deals with T2, bovine serum albumin (Bos taurus, UniProt P02769).
T2 construct: purchased
T2 sequence (P02769 25-607): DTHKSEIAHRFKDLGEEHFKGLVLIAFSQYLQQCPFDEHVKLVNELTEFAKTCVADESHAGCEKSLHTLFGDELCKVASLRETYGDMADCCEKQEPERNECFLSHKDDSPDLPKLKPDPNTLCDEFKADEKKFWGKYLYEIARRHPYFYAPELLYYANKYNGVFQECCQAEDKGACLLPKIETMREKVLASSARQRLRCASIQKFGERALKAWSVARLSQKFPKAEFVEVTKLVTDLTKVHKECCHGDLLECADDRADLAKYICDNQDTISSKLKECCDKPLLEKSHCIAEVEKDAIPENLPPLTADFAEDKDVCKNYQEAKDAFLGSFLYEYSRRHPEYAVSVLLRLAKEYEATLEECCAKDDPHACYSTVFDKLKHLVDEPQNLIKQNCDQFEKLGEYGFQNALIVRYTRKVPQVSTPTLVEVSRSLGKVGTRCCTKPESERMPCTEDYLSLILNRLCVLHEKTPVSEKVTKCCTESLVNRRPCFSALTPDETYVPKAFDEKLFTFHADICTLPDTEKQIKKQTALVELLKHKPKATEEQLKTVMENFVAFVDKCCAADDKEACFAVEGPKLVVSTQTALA
Description: Specificity control: bovine serum albumin added to quantum dots and 2. The format is binding. The conditions noted are these: quantum dots 1.5 μM, 2 4.1 μM, bovine serum albumin 7.4 μM, pH=7.8, 20° C.
Description: as §3
Methods. […] Infrared absorption spectra were recorded with a Perkin-Elmer Spectrum One Fourier transform spectrometer. Visible absorption spectra were recorded with a Varian Cary 100 Bio spectrometer, using quartz cells with a path length of 0.5 cm. Emission spectra were recorded with a Varian Cary Eclipse spectrometer in aerated solutions. Fast atom bombardment mass spectra (FABMS) were recorded with a VG Mass Lab Trio-2 in a 3-nitrobenzyl alcohol matrix. Nuclear magnetic resonance (NMR) spectra were recorded with Bruker Avance 400 and 500 spectrometers.

Take `C[n+]1ccc(-c2cc[n+](C)cc2)cc1` [compound 1, methyl viologen, reference compound]: in experiment [1], the “luminescence increase after interaction with 3” value is on record as 80%. For the same compound, the Stern-Volmer constant result in experiment [2] is given as “about 0.45 μM^−1”.
As for “bovine serum albumin: control protein that does not bind biotin”, the “effect on the emission spectrum of the quantum dots” value in experiment [3] is given as “no influence”.
In the case of “streptavidin: protein receptor that binds the biotin ligand of 2”, the “effect on the emission spectrum of the quantum dots” value in experiment [3] is “no influence”.
Same read-out and setting: in the case of `O=C1N2CN3C(=O)N4CN5C(=O)N6CN7C(=O)N8CN9C(=O)N%10CN%11C(=O)N%12CN1C1C2N2CN%13C(=O)N(CN%14C(=O)N(CN%15C(=O)N(CN%16C(=O)N(CN%17C(=O)N(CN1C2=O)C%12C%11%17)C%10C9%16)C8C7%15)C6C5%14)C4C3%13` (stereo not drawn) [compound 3, cucurbituril, reference compound] it was “no influence”.
Regarding `C[n+]1ccc(-c2cc[n+](CCCOCCCCCC3SCC4NC(=O)NC43)cc2)cc1.[I-].[I-]` (stereo not drawn) [compound 2, 1-Methyl-1′-(3-(5-(2-Oxohexahydrothieno[3,4-d]imidazol-6-yl)-pentanoxy)-propyl)-4,4′-Bipyridinium Bisiodide], on streptavidin, the “luminescence increase after association with streptavidin” value was determined as 30%. Besides, at bovine serum albumin, the “effect of bovine serum albumin on the emission spectrum” value is recorded as “no influence”. In addition, the Stern-Volmer constant entry in experiment [2] is given as “about 0.22 μM^−1”. Also, the “decrease in the Stern-Volmer constant relative to 1” value in experiment [2] (same conditions as the Stern-Volmer plots) is “about 0.23 μM^−1”.
